Molecular target: human GLP1R (hGLP1R) (Homo sapiens, UniProt P43220)
Assay: Human GLP1R cAMP agonist assay (GloSensor cAMP Assay)
Format: cell-based
Details: HEK293-SNAP-hGLP1R-GloSensor cells; for Emax: cAMP activity as percent of GLP1 (7-36) EC100 control; for EC50: intracellular cAMP, 12 min at rt
Procedure: Compounds of formula (I) according to the invention were tested in the following cellular assays that measure the intracellular cAMP concentration, beta-arrestin recruitment and receptor internalization. The cAMP is generated by the activation of GLP1R. The extent to which the GLP1R is internalized into the cell and away from the plasma membrane following activation is also shown in Table 2. EC50 for each assay is defined as the concentration of the compound that leads to half of the maximum response (after baseline correction). Emax is defined as the maximum response observed for the test compound, normalized to the maximum response observed for the endogenous ligand (GLP1(7-36)) to GLP1R.
Human GLP1R cAMP Agonist Assay
The agonist activity of compounds was determined using the GloSensor™ cAMP Assay (Promega Corp.), which measures changes in the intracellular concentration of cAMP after ligand activation of GPCRs. The assay uses a biosensor encoded by pGloSensor™-22F cAMP plasmid (Promega, cat #E2301) with cAMP binding domains fused to a mutant form of Photinus pyralis luciferase. Binding to cAMP causes conformational changes that promote large increases in light output, which can be measured by a luminescence detector. HEK293-SNAP-hGLP1R-GloSensor cells stably overexpressing the human GLP1 receptor (hGLP1R) and pGloSensor™-22F were seeded in white 384-well poly-D-Lysine coated plates (Greiner Bio One, cat #781945) in CO2-independent media (Gibco cat #18045-088 with 1.0% FBS, 2 mM L-glutamine, penicillin and streptomycin) and incubated overnight at 37° C., 5% CO2 with humidity. The assay was started the following morning by adding an equal volume of CO2-independent media containing 4% v/v dilution of the GloSensor substrate (Promega, cat #E1291) to all wells. The cell plate was incubated at rt for 2 h in the dark. The Biomek 7 (Beckman Coulter) instrument was used for the liquid handling steps. To generate duplicate dose response curves, 3-fold serially diluted compounds were added in to the cell assay plate to a final volume of 60 μL with final concentrations ranging from 30 μM through 0.06 μM in CO2-independent media containing 0.1% BSA, 0.5 mM IBMX and 0.4% DMSO. In the same plate and assay buffer as the tested compounds, were EC100 control wells containing GLP1 (7-36) peptide (Bachem, cat #H-6795) at a final concentration of 2 nM and also EC0 control wells containing no peptide. This plate was incubated at rt in the dark for 12 min after adding the compounds to the cells. Luminescence was then measured with an Envision 2104 Multilabel reader with “TRF Light Unit, 337 nm” (PerkinElmer) using the Ultra-Sensitive protocol setting “384-well US luminescence detector” with the 384-well luminescence aperture, 0.1 seconds per well. cAMP activity was calculated as percent of the GLP1 (7-36) EC100 control wells: [(sample signal−mean EC0 signal)/(mean EC100 of GLP1 (7-36) signal−mean EC0 signal)}*100. Curve fitting for EC50 determinations was performed in the Helios module of the software package DAVID. The 4-parameter logistic model, Hill slope was used: y=Ainf+(A0−Ainf)/(1+(x/AC50)^Hill Slope) where y is the functional response; x is the compound concentration; A0 is the minimum value (at 0 dose); Ainf is the maximum value (at infinite dose); AC50 corresponds to the point of inflection (i.e. the point on the sigmoid shaped curve halfway between A0 and Ainf). The EC50 value was represented by the AC50 value calculated from Helios in μM. Emax is the maximal activity detected within the concentration range, derived from the fitted curve.
327 μL of Opti-MEM medium (Gibco, cat #31985-062) were mixed with 12 μL of FuGENE® HD (Promega, cat #E2311) and incubated at rt for 5 min. Then 8.2 μL (4 μg, 0.485 μg/μL solution) of pSNAP-hGLP1R plasmid (Cisbio, cat #PSNAP-GLP1) encoding human GLP1R (NCBI Reference Sequence: NM_002062.3) fused with Cisbio's SNAP tag was added in to the Fugene HD/Opti-MEM mix, and incubated at rt for 20 min. […]

Chain of human GLP1R (hGLP1R) (P43220 24-463): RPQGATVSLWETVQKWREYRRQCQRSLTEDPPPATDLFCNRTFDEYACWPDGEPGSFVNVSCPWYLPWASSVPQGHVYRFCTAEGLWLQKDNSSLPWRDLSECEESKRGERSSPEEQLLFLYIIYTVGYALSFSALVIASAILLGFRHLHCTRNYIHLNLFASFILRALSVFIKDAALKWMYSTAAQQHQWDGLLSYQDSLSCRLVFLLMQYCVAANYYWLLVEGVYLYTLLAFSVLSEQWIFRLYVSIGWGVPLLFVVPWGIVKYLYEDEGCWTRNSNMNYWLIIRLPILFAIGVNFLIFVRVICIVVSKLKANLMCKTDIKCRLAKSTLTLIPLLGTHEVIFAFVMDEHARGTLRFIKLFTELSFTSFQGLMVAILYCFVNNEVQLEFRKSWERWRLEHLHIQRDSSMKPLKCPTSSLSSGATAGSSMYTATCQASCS

| SMILES | Emax [%] | EC50 [nM] |
| --- | --- | --- |
| Cc1nc(CN2CCC(c3cccc4c3O[C@@](C)(c3ccc(Cl)cc3F)O4)CC2)n(C[C@H]2CCO2)c1-c1ncc(C(=O)O)o1 [Compound C-2, 2-(2-((4-((S)-2-(4-chloro-2-fluorophenyl)-2-methylbenzo[d][1,3]dioxol-4-yl)piperidin-1-yl)methyl)-4-methyl-1-(((R)-oxetan-2-yl)methyl)-1H-imidazol-5-yl)oxazole-5-carboxylic acid] | 108 | 0.149 |
| Cc1nc(CN2CCC(c3cccc4c3O[C@@](C)(c3ccc(Cl)cc3F)O4)CC2)n(C[C@H]2CCO2)c1-c1nc(C(=O)O)co1 [Compound C-3, 2-(2-((4-((S)-2-(4-chloro-2-fluorophenyl)-2-methylbenzo[d][1,3]dioxol-4-yl)piperidin-1-yl)methyl)-4-methyl-1-(((R)-oxetan-2-yl)methyl)-1H-imidazol-5-yl)oxazole-4-carboxylic acid] | 105 | 0.0484 |
| CCc1nc(CN2CCC(c3cccc4c3O[C@@](C)(c3ccc(Cl)cc3F)O4)CC2)n(C[C@@H]2CCO2)c1-c1ncc(C(=O)O)o1 [Compound C-6, 2-(2-((4-((S)-2-(4-chloro-2-fluorophenyl)-2-methylbenzo[d][1,3]dioxol-4-yl)piperidin-1-yl)methyl)-4-ethyl-1-(((S)-oxetan-2-yl)methyl)-1H-imidazol-5-yl)oxazole-5-carboxylic acid] | 123 | 0.464 |
| CCc1nc(CN2CCC(c3cccc4c3O[C@@](C)(c3ccc(Cl)cc3F)O4)CC2)n(C[C@H]2CCO2)c1-c1ncc(C(=O)O)o1 [Compound C-8, 2-(2-((4-((S)-2-(4-chloro-2-fluorophenyl)-2-methylbenzo[d][1,3]dioxol-4-yl)piperidin-1-yl)methyl)-4-ethyl-1-(((R)-oxetan-2-yl)methyl)-1H-imidazol-5-yl)oxazole-5-carboxylic acid] | 101 | 0.353 |
| Cc1nc(CN2CCC(c3cccc4c3O[C@@](C)(c3ccc(C#N)cc3F)O4)CC2)n(C[C@@H]2CCO2)c1-c1nc(C(=O)O)c(C)o1 [Compound C-11, 2-(2-((4-((S)-2-(4-cyano-2-fluorophenyl)-2-methylbenzo[d][1,3]dioxol-4-yl)piperidin-1-yl)methyl)-4-methyl-1-(((S)-oxetan-2-yl)methyl)-1H-imidazol-5-yl)-5-methyloxazole-4-carboxylic acid] | 105 | 0.0428 |
| Cc1nc(-c2nc(CN3CCC(c4cccc5c4O[C@@](C)(c4ccc(Cl)cc4F)O5)CC3)n(C[C@@H]3CCO3)c2C)oc1C(=O)O [Compound C-15, 2-(2-((4-((S)-2-(4-chloro-2-fluorophenyl)-2-methylbenzo[d][1,3]dioxol-4-yl)piperidin-1-yl)methyl)-5-methyl-1-(((S)-oxetan-2-yl)methyl)-1H-imidazol-4-yl)-4-methyloxazole-5-carboxylic acid] | 103 | 0.112 |
| Cc1nc(CN2CCC(c3cccc4c3O[C@@](C)(c3ccc(Cl)cc3F)O4)CC2)n(C[C@@H]2CCO2)c1-c1ccc(C(=O)O)o1 [Compound C-22, 5-(2-((4-((S)-2-(4-chloro-2-fluorophenyl)-2-methylbenzo[d][1,3]dioxol-4-yl)piperidin-1-yl)methyl)-4-methyl-1-(((S)-oxetan-2-yl)methyl)-1H-imidazol-5-yl)furan-2-carboxylic acid] | 119 | 0.35 |
| Cc1c(-c2cncc(C(=O)O)c2)nc(CN2CCC(c3cccc4c3O[C@@](C)(c3ccc(Cl)cc3F)O4)CC2)n1C[C@@H]1CCO1 [Compound C-23, 5-(2-((4-((S)-2-(4-chloro-2-fluorophenyl)-2-methylbenzo[d][1,3]dioxol-4-yl)piperidin-1-yl)methyl)-5-methyl-1-(((S)-oxetan-2-yl)methyl)-1H-imidazol-4-yl)nicotinic acid] | 106 |  |

From US20250145600A1, “2-((4-((S)-2-(4-CHLORO-2-FLUOROPHENYL)-2-METHYLBENZO[D][1,3]DIOXOL-4-YL)PIPERIDIN-1-YL)METHYL)-1-(((S)-OXETAN-2-YL)METHYL)-1H-IMIDAZOLE DERIVATIVES AS ACTIVATORS OF THE GLP1 RECEPTOR FOR THE TREATMENT OF OBESITY” (Novartis AG, priority 2022, published 2025)
